How the values were obtained:
DmVgRXR + MmRXR [1] = target: T1, DmVgRXR + MmRXR (Drosophila melanogaster, UniProt P34021, E282G/G283S/G286V); assay: Transactivation of reporter genes through switch 1.8 in CHO cells; type: cell-based; conditions: switch 1.8 DmVgRXR + MmRXR, pIND(SP1)LacZ
T1 construct: host or cells: CHO, NIH3T3, 293 or CV1 cells (one cell line per assay)
Description: (§1) This system was purchased from Invitrogen Corp., Carlsbad, Calif. It comprises a Drosophila melanogaster EcR (“DmEcR”) with a modified DNABD fused to VP16AD and placed under the control of a CMV promoter (SEQ ID NO: 60). Full length MmRXR (SEQ ID NO: 53) was placed under the control of the RSV promoter (SEQ ID NO: 61). The reporter, pIND(SP1)LacZ, contains five copies of a modified ecdysone response element (“EcRE”, E/GRE), three copies of an SP1 enhancer, and a minimal heat shock promoter, all of which were placed upstream to the LacZ reporter gene.
(§2) The cells were harvested and reporter activity was assayed.
(§3) Cells were harvested 24-48 hr after adding ligands. […] Twenty μl of lysate was assayed.

GAL4USP + VP16CfEcR [2] = assay: Transactivation of reporter genes through switch 1.5 in 293 cells; type: cell-based, Choristoneura fumiferana; conditions: switch 1.5 GAL4USP + VP16CfEcR, pGAL4RELuc
Procedure: (§4) This construct was prepared in the same way as switch 1.3 except MmRXRDEF was replaced with CfUSPDEF (SEQ ID NO: 58).
(§5) The same procedures described for CHO were followed for 293 cells except that the cells were plated in biocoated plates to avoid clumping.
as §3

VP16CfEcR = assay: Transactivation of reporter genes through switch 1.7 in 293 cells; type: cell-based, Choristoneura fumiferana; conditions: switch 1.7 VP16CfEcR, pEcRELuc
Procedure: Six ecdysone response elements (“EcRE”; SEQ ID NO: 59) from the hsp27 gene were placed upstream of the promoter and a luciferase gene (SEQ ID NO: 57). This switch most probably uses endogenous RXR.
as §5, §3

GAL4CfEcRVP16 = assay: Transactivation of reporter genes through switch 1.6 in CHO cells; type: cell-based, Choristoneura fumiferana; conditions: switch 1.6 GAL4CfEcRVP16, pGAL4RELuc
Procedure: This construct was prepared so that both the GAL4 DNABD and the VP16AD were placed on the same molecule. GAL4DNABD (SEQ ID NO: 41) and VP16AD (SEQ ID NO: 45) were fused to CfEcRDEF (SEQ ID NO: 3) at N- and C-termini respectively.
as §2, §3

CfVgRXR [3] = assay: Transactivation of reporter genes through switch 1.10 in 293 cells; type: cell-based, Choristoneura fumiferana; conditions: switch 1.10 CfVgRXR, pIND(SP1)LacZ
Procedure: (§6) This example was prepared in the same way as switch 1.9 except MmRXR (SEQ ID NO: 53) was deleted.
as §5, §3

GAL4RXR + VP16CfEcR = assay: Transactivation of reporter genes through switch 1.3 in 293 cells; type: cell-based, Choristoneura fumiferana; conditions: switch 1.3 GAL4RXR + VP16CfEcR, pGAL4RELuc
Procedure: as §5, §3

GAL4USP + VP16CfEcR [4] = assay: Transactivation of reporter genes through switch 1.5 in 3T3 cells; type: cell-based, Choristoneura fumiferana; conditions: switch 1.5 GAL4USP + VP16CfEcR, pGAL4RELuc
Procedure: as §4
The cells were plated when they reached 50% confluency.
as §3

GAL4EcR + VP16RXR = assay: Transactivation of reporter genes through switch 1.1 in 293 cells; type: cell-based, Choristoneura fumiferana; conditions: switch 1.1 GAL4EcR + VP16RXR, pGAL4RELuc
Procedure: as §5, §3

CfVgRXR [5] = assay: Transactivation of reporter genes through switch 1.10 in CHO cells; type: cell-based, Choristoneura fumiferana; conditions: switch 1.10 CfVgRXR, pIND(SP1)LacZ
Procedure: as §6, §2, §3

DmVgRXR + MmRXR [6] = target: T1, DmVgRXR + MmRXR; assay: Transactivation of reporter genes through switch 1.8 in 293 cells; type: cell-based; conditions: switch 1.8 DmVgRXR + MmRXR, pIND(SP1)LacZ
Description: as §1, §5, §3

GAL4USP + VP16CfEcR [7] = assay: Transactivation of reporter genes through switch 1.5 in CV1 cells; type: cell-based, Choristoneura fumiferana; conditions: switch 1.5 GAL4USP + VP16CfEcR, pGAL4RELuc
Procedure: as §4
The same procedures described for NIH3T3 cells were followed for CV1 cells
as §3

GAL4EcR + VP16USP = assay: Transactivation of reporter genes through switch 1.2 in 293 cells; type: cell-based, Choristoneura fumiferana; conditions: switch 1.2 GAL4EcR + VP16USP, pGAL4RELuc
Procedure: This construct was prepared in the same way as in switch 1.1 above except MmRXRDEF was replaced with the D, E and F domains from spruce budworm USP (“CfUSPDEF”; SEQ ID NO: 58). The constructs used in this example are similar to those disclosed in U.S. Pat. No. 5,880,333 except that Choristoneura fumiferana USP rather than Drosophila melanogaster USP was utilized.
as §5, §3

GAL4USP + VP16CfEcR [8] = assay: Transactivation of reporter genes through switch 1.5 in CHO cells; type: cell-based, Choristoneura fumiferana; conditions: switch 1.5 GAL4USP + VP16CfEcR, pGAL4RELuc
Procedure: as §4, §2, §3

T1 sequence (P34021 whole entry E282G/G283S/G286V): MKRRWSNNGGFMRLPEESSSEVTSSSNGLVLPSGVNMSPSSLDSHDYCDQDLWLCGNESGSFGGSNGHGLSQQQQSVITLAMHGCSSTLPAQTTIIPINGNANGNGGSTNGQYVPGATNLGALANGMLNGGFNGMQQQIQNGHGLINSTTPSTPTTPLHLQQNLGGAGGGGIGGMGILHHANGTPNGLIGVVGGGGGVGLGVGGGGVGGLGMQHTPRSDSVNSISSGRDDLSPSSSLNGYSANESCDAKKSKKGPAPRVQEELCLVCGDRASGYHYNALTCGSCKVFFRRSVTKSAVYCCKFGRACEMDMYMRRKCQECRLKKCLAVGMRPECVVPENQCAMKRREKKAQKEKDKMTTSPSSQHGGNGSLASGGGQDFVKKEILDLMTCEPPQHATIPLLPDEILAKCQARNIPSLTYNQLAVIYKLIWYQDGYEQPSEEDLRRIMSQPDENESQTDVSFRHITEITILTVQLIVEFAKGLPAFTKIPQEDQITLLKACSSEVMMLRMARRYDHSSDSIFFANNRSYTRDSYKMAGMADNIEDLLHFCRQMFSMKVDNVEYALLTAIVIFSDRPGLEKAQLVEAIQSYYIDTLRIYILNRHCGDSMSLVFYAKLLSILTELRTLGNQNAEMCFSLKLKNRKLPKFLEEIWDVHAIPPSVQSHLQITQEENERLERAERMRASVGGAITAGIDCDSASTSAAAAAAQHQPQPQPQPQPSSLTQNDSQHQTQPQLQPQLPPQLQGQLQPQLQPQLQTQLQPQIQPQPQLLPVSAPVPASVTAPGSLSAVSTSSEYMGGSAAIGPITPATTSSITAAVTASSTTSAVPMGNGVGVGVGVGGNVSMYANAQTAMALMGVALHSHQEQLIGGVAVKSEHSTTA
T1 sequence (P28700 whole entry, further chain): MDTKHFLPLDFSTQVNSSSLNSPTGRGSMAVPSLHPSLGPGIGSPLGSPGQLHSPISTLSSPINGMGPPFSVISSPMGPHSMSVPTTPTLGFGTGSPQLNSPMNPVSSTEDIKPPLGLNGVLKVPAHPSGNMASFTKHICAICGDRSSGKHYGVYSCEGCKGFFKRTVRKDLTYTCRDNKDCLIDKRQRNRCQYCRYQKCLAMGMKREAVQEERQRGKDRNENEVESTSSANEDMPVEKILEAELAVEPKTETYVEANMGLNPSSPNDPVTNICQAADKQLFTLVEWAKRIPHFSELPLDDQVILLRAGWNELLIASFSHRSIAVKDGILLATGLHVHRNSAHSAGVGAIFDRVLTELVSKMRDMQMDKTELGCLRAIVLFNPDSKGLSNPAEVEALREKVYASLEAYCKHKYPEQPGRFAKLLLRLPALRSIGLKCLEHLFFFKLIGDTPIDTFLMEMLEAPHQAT

CCc1c(OC)cccc1C(=O)NN(C(=O)c1cc(C)cc(C)c1)C(C)(C)C [N-(2-ethyl-3-methoxybenzoyl)-N′-(3,5-dimethylbenzoyl)-N′-tert-butylhydrazine]
Mean Fold Activation with 50 μM N-(2-ethyl-3-methoxybenzoyl)-N′-(3,5-dimethylbenzoyl)-N′-t-butylhydrazine (DmVgRXR + MmRXR [1]): 14 fold
Mean Fold Activation Through N-(2-ethyl-3-methoxybenzoyl)-N′-(3,5-dimethylbenzoyl)-N′-t-butylhydrazine (GAL4USP + VP16CfEcR [2]): 2 fold
Mean Fold Activation Through N-(2-ethyl-3-methoxybenzoyl)-N′-(3,5-dimethylbenzoyl)-N′-t-butylhydrazine (VP16CfEcR): 2 fold
Mean Fold Activation with 50 μM N-(2-ethyl-3-methoxybenzoyl)-N′-(3,5-dimethylbenzoyl)-N′-t-butylhydrazine (GAL4CfEcRVP16): 9 fold
Mean Fold Activation Through N-(2-ethyl-3-methoxybenzoyl)-N′-(3,5-dimethylbenzoyl)-N′-t-butylhydrazine (CfVgRXR [3]): 3 fold
Mean Fold Activation Through N-(2-ethyl-3-methoxybenzoyl)-N′-(3,5-dimethylbenzoyl)-N′-t-butylhydrazine (GAL4RXR + VP16CfEcR): 17 fold
Mean Fold Activation Through N-(2-ethyl-3-methoxybenzoyl)-N′-(3,5-dimethylbenzoyl)-N′-t-butylhydrazine (GAL4USP + VP16CfEcR [4]): 3 fold
Mean Fold Activation Through N-(2-ethyl-3-methoxybenzoyl)-N′-(3,5-dimethylbenzoyl)-N′-t-butylhydrazine (GAL4EcR + VP16RXR): 125 fold
Mean Fold Activation with 50 μM N-(2-ethyl-3-methoxybenzoyl)-N′-(3,5-dimethylbenzoyl)-N′-t-butylhydrazine (CfVgRXR [5]): 29 fold
Mean Fold Activation Through N-(2-ethyl-3-methoxybenzoyl)-N′-(3,5-dimethylbenzoyl)-N′-t-butylhydrazine (DmVgRXR + MmRXR [6]): 21 fold
Mean Fold Activation Through N-(2-ethyl-3-methoxybenzoyl)-N′-(3,5-dimethylbenzoyl)-N′-t-butylhydrazine (GAL4USP + VP16CfEcR [7]): 3 fold
Mean Fold Activation Through N-(2-ethyl-3-methoxybenzoyl)-N′-(3,5-dimethylbenzoyl)-N′-t-butylhydrazine (GAL4EcR + VP16USP): 2 fold
Mean Fold Activation with 50 μM N-(2-ethyl-3-methoxybenzoyl)-N′-(3,5-dimethylbenzoyl)-N′-t-butylhydrazine (GAL4USP + VP16CfEcR [8]): 2 fold

From patent US8822754B2, “Ecdysone receptor-based inducible gene expression system” (Intrexon Corporation, priority 2000, dated 2014)
